The values below come from patent US20110052776A1, “CHOCOLATE COMPOSITIONS HAVING IMPROVED FLAVOUR CHARACTERISTICS” (priority 2007, published 2011).

Assay [1] relates to expert panel members. The assay is described as follows: Sucrose Equivalent Value (SEV) of pH 3.2 buffered sucrose solution, taste panel. In kind it is in vivo. Conditions: for SEV (%): 500 ppm of one potentiator in pH 3.2 buffered 5% sucrose solution; for effect on SEV of sucrose solutions, forms of 2,4-DHB: 500 ppm, pH 3.2 buffered solutions with 0%, 3%, 5%, 7% and 9% sucrose; for maximum sweetness attainable (SEV): pH 3.2 buffered 5% sucrose solution, dose response curve 0 to 1000 ppm; for SEV of solution containing 500 ppm 2,4-DHB and 500 ppm of a second sweetener potentiator: label = second potentiator, 5% sucrose solution. As for the experimental part: (§1) One method of measuring the perceived sweetness of a solution is to match it with a stock sucrose solution of known concentration. In the present experiments, the compound of interest is added at a predetermined concentration to a pH 3.2 buffered solution containing 5% sucrose. A number of expert panel members then taste the solution and compare it to a battery of stock sucrose solutions ranging from 3% to 15% at increments of 1%. Each panel member decides which sucrose solution is equisweet with the solution containing the compound of interest. The mean value is then reported as the SEV. Results are reported to 1 decimal place.
In accordance with this methodology, 3-HB was added to a pH 3.2 buffered solution containing 5% sucrose to produce solutions containing from 0 to 1000 ppm 3-HB in 100 ppm increments. […] From FIG. 1 it is apparent that as the dosage of 3-HB increases so does the sweetness of the resultant solution. However the effect is non-linear with each incremental addition having a diminishing effect. The maximum sweetness attainable would appear to be about 7.9% SEV (based on a 5% sucrose solution).
The same methodology as described in Example 6 was repeated with 2,4-DHB in place of 3-HB, to produce the dose response curve for 2,4-DHB (FIG. 2). […] The maximum attainable sweetness would appear to be about 6.7% SEV (based on a 5% sucrose solution).
500 ppm of a sweetener potentiator was added to a pH 3.2 buffered solution containing 5% sucrose and the SEV of the resultant solution determined.
500 ppm of the sweetener potentiator then was added to a 5% sucrose solution containing 500 ppm 3-HB to produce a series of solutions. […] The use of 500 ppm of 3-HB alone results in an SEV of 6.9% whereas in all cases but two (2,4-DHB and 3,4-DHB) the addition of a second sweetener potentiator results in a little change or even a decrease in SEV. This is highly surprising considering that all of the potentiators are shown to have SEVs greater than 5%.
The methodology was repeated to produce a series of solutions containing 500 ppm 2,4-DHB and 500 ppm of a second sweetener potentiator.
500 ppm of 3-HB, 500 ppm of 2,4-DHB and 500 ppm of 3,4-dihydroxybenzoic acid (3,4-DHB) were added to a pH 3.2 buffered solution containing 5% sucrose and the SEV determined. The results are shown in FIG. 7 together with other combinations of 3-HB, 2,4-DHB and 3,4-DHB for comparison. The solution containing the combination of 3-HB and 2,4-DHB (hatched) has a much higher SEV (8.7%) than the combination of either 3,4-DHB and 3-HB (7.6%) or the combination of 3,4-DHB and 2,4-DHB (6.8%). The three-way combination of the embodiment (hatched) is better still with an SEV of 9.8%.
Buffered solutions of pH 3.2 were prepared containing 0%, 3%, 5%, 7% and 9% sucrose. 500 ppm of 2,4-DHB acid, 500 ppm of the sodium salt of 2,4-DHB and 500 ppm of the potassium salt of 2,4-DHB were added individually to each of the sucrose solutions. The SEV for each of the solutions was then determined.
500 ppm of 3-aminobenzoic acid and 500 ppm of 4-aminobenzoic acid were individually added to separate pH 3.2 buffered solutions containing 5% sucrose and the SEVs of the resultant solutions were determined. The SEV of 3-aminobenzoic acid was about 7%, i.e., increased the sweetness intensity of 5% sucrose to about 7%. The SEV of 4-aminobenzoic acid was about 5.5-6%, i.e., increased the sweetness intensity of 5% sucrose to about 5.5-6%.

Another assay deals with panel member. The assay is described as follows: Sucrose reduction method versus 10% sucrose control, taste panel. Type of assay: in vivo. Conditions: 1000 ppm used individually; control pH 3.2 10% sucrose. Here is the method:
An alternative method of measuring perceived sweetness is to determine how much sucrose can be replaced through the use of the compound of interest without any Perceived loss of sweetness. In the present experiments the control was a pH 3.2 buffered solution containing 10% sucrose. The compound of interest is added at a predetermined concentration to a number of sucrose solutions containing from 5% to 10% sucrose at increments of 0.5%. Each panel member tastes each of the solutions, compares it to the control sample and decides which solutions are equisweet. For example, if the 8% sucrose solution containing the compound of interest is equisweet with the control, then the sucrose reduction achieved by the compound of interest is 20%.
A series of sucrose solutions were prepared containing 3-HB and 2,4-DHB at a combined concentration of 1000 ppm. Each solution was evaluated using the sucrose reduction method described above to determine how much sucrose could be replaced without noticeable loss of sweetness.
A series of sucrose solutions were prepared containing equal quantities of 3-HB and 2,4-DHB, at a combined concentration of 200, 400, 600, 800 and 1000 ppm. Each solution was evaluated using the sucrose reduction method described in Example 8 above to determine how much sucrose could be replaced without noticeable loss of sweetness.

The conditions of assay [2]: cited from earlier work.
Assay [3] concerns expert panel members. The experiment in a line: SEV of non-sucrose sweetener solutions (SEV about 5%) after addition of potentiators. In kind it is in vivo. The note with it: 500 ppm 3-HB alone versus with 500 ppm 2,4-DHB; pH 3.2. As for the experimental part:
as §1
The SEV of each sweetener solution was then evaluated after the addition 500 ppm of 3-HB, the addition of 500 ppm of 2,4-DHB and the addition of both 500 ppm 3-HB and 2,4-DHB.

With `O=C(O)c1ccc(O)c(O)c1O` [2,3,4-trihydroxybenzoic acid (2,3,4-THB), 2,3,4-trihydroxybenzoic acid], the “SEV (%)” value with expert panel members [1] amounted to 5.4%.
With `O=C(O)c1cccc(O)c1O` [2,3-dihydroxybenzoic acid (2,3-DHB), 2,3-dihydroxybenzoic acid], in the assay with expert panel members [1], the “SEV (%)” value came to 6.3%.
On the same count and under the same terms, the figure for `O=C(O)c1c(O)cc(O)cc1O` [2,4,6-trihydroxybenzoic acid (2,4,6-THB), 2,4,6-trihydroxybenzoic acid] is 5.4%.
In the case of `O=C(O)c1ccc(O)cc1O` [2,4-DHB, 2,4-dihydroxybenzoic acid], the SEV with expert panel members [1] (400 ppm in pH 3.2 buffered 5% sucrose solution) is reported as 6.5%. For the same compound, in the assay with expert panel members [1], the “SEV (%)” value was 6.5%; the “effect on SEV of sucrose solutions, forms of 2,4-DHB” value (shortened to “effect on SEV of sucrose solutions”) is listed as “enhances the sweetness of the sucrose solution in every case”; the “maximum sweetness attainable (SEV)” value is listed as “about 6.7 % SEV”. Moreover, the SEV with expert panel members [1] (1000 ppm in pH 3.2 buffered 5% sucrose solution) amounted to 6.7%. This compound returned a sucrose reduction in the assay on panel member of 15%. In assay [2] (FIGS. 1 and 2 and Tables 1 and 2 of U.S. Pat. No. 6,461,658), the “effect on the sweetness intensity of both sucralose and aspartame” value was “slightly inhibitory effect”. Besides, the “length of time during which sucralose sweetness is perceived” value in assay [2] (U.S. Pat. No. 6,461,658) is “significantly reducing”. Also, the “effect on sweetness of a 5% sucrose solution” value in assay [2] (addition of 0.2% 2,4-DHB, Canadian Patent No. 1208966) is “increase in sweetness”.
In the case of `O=C(O)c1cc(O)ccc1O` [2,5-dihydroxybenzoic acid (2,5-DHB), 2,5-dihydroxybenzoic acid], the “SEV (%)” value in the assay with expert panel members [1] turned out to be 5.3%.
Still for that read-out and setting: with `O=C(O)c1c(O)cccc1O` [2,6-dihydroxybenzoic acid (2,6-DHB), 2,6-dihydroxybenzoic acid] the figure was 5.3%.
For `O=C(O)c1ccccc1O` [2-hydroxybenzoic acid (2-HB), 2-hydroxybenzoic acid], in the assay on expert panel members [1], the “SEV (%)” value is listed as 5.6%; the “SEV of solution containing 500 ppm 2,4-DHB and 500 ppm of a second sweetener potentiator” value was found to be 6.3%.
Regarding `O=C(O)c1cc(O)c(O)c(O)c1` [3,4,5-tryhydroxybenzoic acid (3,4,5-THB), 3,4,5-tryhydroxybenzoic acid], the “SEV (%)” value in the assay on expert panel members [1] was determined as 5.1%.
On the same count and under the same terms, the figure for `O=C(O)c1ccc(O)c(O)c1` [3,4-dihydroxybenzoic acid (3,4-DHB), 3,4-dihydroxybenzoic acid] is 6.4%; for `O=C(O)c1cc(O)cc(O)c1` [3,5-dihydroxybenzoic acid (3,5-DHB), 3,5-dihydroxybenzoic acid] it is 5.3%.
Regarding `Nc1cccc(C(=O)O)c1` [3-aminobenzoic acid], in the assay on expert panel members [1], the “SEV (%)” value is recorded as “about 7%”.
Same read-out and setting: the figure for `Nc1ccc(C(=O)O)cc1` [4-aminobenzoic acid] is 5.5-6%.
With `O=C(O)c1ccc(O)cc1` [4-hydroxybenzoic acid (4-HB), 4-hydroxybenzoic acid], in the assay on expert panel members [1], the “SEV (%)” value is given as 5.2%; the “SEV of solution containing 500 ppm 2,4-DHB and 500 ppm of a second sweetener potentiator” value is on record as 6.2%.
Regarding `O=C(O)c1cccc(O)c1` [Example 3-HB, 3-hydroxybenzoic acid], in the assay on expert panel members [1], the “SEV (%)” value is given as 6.9% and the “maximum sweetness attainable (SEV)” value is on record as “about 7.9 % SEV”. Besides, the “effect on sweetness of saccharin solution” value with expert panel members [3] is “enhances the sweetness to a greater degree alone than in combination with 2,4-DHB”. For the same compound, the sucrose reduction with panel member came to 25%.
In the case of `O=C([O-])c1ccc(O)cc1O.[K+]` [potassium salt of 2,4-DHB], the “effect on SEV of sucrose solutions” value in the assay with expert panel members [1] is on record as “enhances the sweetness of the sucrose solution in every case”.
As for `O=C([O-])c1ccc(O)cc1O.[Na+]` [sodium salt of 2,4-DHB], the “effect on SEV of sucrose solutions” value in the assay on expert panel members [1] is reported as “enhances the sweetness of the sucrose solution in every case”.
